Key:
[1] = molecular target: T1, Amyloid [A]β1-40 aggregates (Homo sapiens, UniProt P05067); test: Defibrillization assay: dissolution of already formed amyloid Aβ-aggregates (Thioflavin T fluorescence); format: biochemical; conditions: 12 mg PC/ml test assay for walnut extracts, 12 mg PC Soy or PS Soy/ml; FIG. 3
T1 construct: Amyloid [A] β1-40 (Sigma-Aldrich, A 1075); purchased Sigma-Aldrich A 1075
Description: In this example, the highest concentrations of the walnut extracts (12 mg PC/ml test assay for the walnut extracts, 12 mg PC Soy or PS Soy/ml) were evaluated for their ability to reverse an already formed aggregate of amyloid-β.
Defibrillization efficacy is indicative for treatment of Alzheimer disease.
Dissolution of amyloid Aβ-aggregates by ES2008-021 and ES2008-022-Defibrillization assay
In a further extension of the test system, the above samples were evaluated for their ability to reverse an already formed aggregate of amyloid-β. Defibrillization efficacy is indicative for curing of Alzheimer disease.
Dissolution of amyloid Aβ-aggregates was induced by incubation with walnut extract. At each concentration of walnut extract (0.625, 1.25, 2.5, 5.0 or 7.5 μl ES2008-022 or 0.625, 1.25, 2.5, 5.0 or 7.5 μl from a stock solution containing 125 mg ES2008-021/ml) three samples were incubated and evaluated. […]
After 3 days each sample is mixed with 2 μM ([…]) Thioflavin T and 950 μl glycine/NaOH buffer (50 mM glycine, pH=9.0). Fluorescence was measured at ex 435 nm/em 485 nm.
Subtract fluorescence intensity for the corresponding “reagent blank samples” from each “active sample”. Compare the resulting fluorescence intensity with the fluorescence intensity measured for the control sample. […]

[2] = molecular target: human blood (acetyl) cholinesterase (Homo sapiens, UniProt P22303); conditions: for inhibition of acetyl cholinesterase (in words): 1 mg Phosphatidylcholine per ml test solution, FIG. 4, FIG. 5; for % activity of AchE: remaining activity within 5 minutes of incubation; for % activity of AchE / % inhibited part of activity of AchE: 1 mg/ml test solution; for % inhibited part of activity of AchE: within 5 minutes of incubation
human blood (acetyl) cholinesterase, sequence (P22303 32-617 isoform P22303-2 limits assumed): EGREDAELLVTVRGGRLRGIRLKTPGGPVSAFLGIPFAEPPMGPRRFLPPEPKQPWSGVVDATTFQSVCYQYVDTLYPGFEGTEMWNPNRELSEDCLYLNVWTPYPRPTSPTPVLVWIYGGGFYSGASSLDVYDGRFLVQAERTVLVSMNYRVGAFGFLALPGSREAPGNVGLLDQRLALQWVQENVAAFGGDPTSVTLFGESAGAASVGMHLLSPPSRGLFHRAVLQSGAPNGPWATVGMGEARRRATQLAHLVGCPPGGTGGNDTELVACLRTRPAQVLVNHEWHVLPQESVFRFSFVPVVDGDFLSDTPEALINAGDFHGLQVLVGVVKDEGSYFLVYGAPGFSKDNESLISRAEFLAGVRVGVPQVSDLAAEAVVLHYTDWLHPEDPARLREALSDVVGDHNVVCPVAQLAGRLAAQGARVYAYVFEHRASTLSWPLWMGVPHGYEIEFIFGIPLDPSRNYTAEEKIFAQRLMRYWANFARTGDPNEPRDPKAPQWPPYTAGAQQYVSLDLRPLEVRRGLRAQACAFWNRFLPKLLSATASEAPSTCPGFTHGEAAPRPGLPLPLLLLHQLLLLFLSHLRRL

T1 sequence (P05067 672-711 limits assumed): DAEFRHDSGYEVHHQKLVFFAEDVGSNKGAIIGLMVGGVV

Row | Substance | defibrillization efficacy (in words) [1] | inhibition of acetyl cholinesterase (in words) [2] | % activity of AchE [2] [%] | % inhibited part of activity of AchE [2] [%]
1 | phosphatidylserine [PS Soy Bean] | less potent in defibrillization | almost inactive | 94.0 | 6.0
2 | phosphatidylcholine [PC Soy Bean] | less potent in defibrillization | almost inactive | 88.2 | 11.8

— patent US20160067295A1, “WALNUT EXTRACTS FOR NUTRACEUTICAL APPLICATIONS” (priority 2009, published 2016)
